Source: patent US20250204515A1, “Heparanase Inhibition for Graft Protection” (University of Pittsburgh - Of the Commonwealth System of …, priority 2022, published 2025)

Experiments:
heparanase (HPSE) = assay: In vitro β-D-glucuronidase activity assay (4-MUG substrate); settings: in vitro, FIG. 8
Experimental: In vitro β-D-glucuronidase activity assay Heparanase activity was measured via β-Glucuronidase activity assay using 4-methylumbelliferyl-β-D-glucuronide (4-MUG) substrate (Millipore-Sigma). As a source of enzymes, platelet rich plasma (PRP) obtained from rat whole blood or rat lung whole tissue lysate, was used. […] Fluorescence (λex 360 nm/λem 460 nm) was continuously measured for 60 minutes using a fluorescence microplate reader (BioTech Synergy HTX, Agilent Technologies, Santa Clara, CA).

[1] = system: human lung microvascular endothelial cells (HLMVECs); assay: In-vitro cellular toxicity test for HPSE inhibitor candidates; settings: HLMVECs, 24 hours
Experimental: In-vitro cellular toxicity test for HPSE Inhibitor candidates: Human lung microvascular endothelial cells (HLMVECs) were obtained from the American Type Culture Collection (Rockville, MD, USA). Cells were cultured in a humidified incubator at 37° C. and 5% CO2 and grown in endothelial growth medium (EGM™-2 Endothelial Cell Growth Medium-2, Lonza, Basel, Switzerland) supplemented with 2% heat-inactivated fetal bovine serum and 0.04% hydrocortisone. Cell media was replaced every 48 hours, and the cells were split upon 80-90% confluence.
Final tested concentrations of HPSE inhibitors were calculated based upon repeatable in vitro dose-response studies. After 24 hours incubation, cell viability was confirmed by Trypan blue exclusion assay. Total mRNA was isolated using Trizol (Thermo Fisher Scientific Inc., Waltham, MA) and relative messenger RNA (mRNA) expression levels of hemeoxygenase-1 (HO-1), interleukin (IL)-6, tumor necrosis factor (TNF)-α, monocyte chemoattractant protein (MCP)-1, B-cell lymphoma 2 Associated X (Bax), B-cell lymphoma 2 (Bcl-2), B-cell lymphoma-extra-large (Bcl-xL) were quantified by SYBR Green 2-step, real-time, reverse transcription-polymerase chain reaction (RT-PCR). Relative gene expression levels were normalized to mRNA expression of glyceraldehyde-3-phosphate dehydrogenase (GAPDH) and compared to relative mRNA expression levels in control-treated HLMVEC.

rat lung grafts = assay: Rat orthotopic left lung transplantation following EVLP; format: in vivo
Experimental: Rat orthotopic left lung transplantation following EVLP: Orthotopic, single-lung transplantation of the left lung was performed using the 3-cuff method. After EVLP for 4 hours, the lungs were cooled with 4° C. Perfadex on the EVLP system and stored at 4° C. for 1 hour prior to transplantation. The recipient animals were sacrificed 2 hours after reperfusion. When analyzing graft function, the native lung was clamped, 100% 02 was administered for 5 minutes through a ventilator, and the recipient's blood was sampled from the graft pulmonary vein for blood gas analysis.
(§1) Graft tissues collected after 4 hours of EVLP and 2 hours after reperfusion were examined for relative mRNA expression levels of interleukin (IL)-6, IL-1, tumor necrosis factor (TNF)-α, and glyceraldehyde-3-phosphate dehydrogenase (GAPDH). Gene expression levels were normalized to GAPDH mRNA levels.
(§2) Tissue staining and histopathological analysis: Formalin-fixed, paraffin-embedded lung tissues collected 2 hours after transplantation were sectioned to 4 μm thickness and stained with hematoxylin and eosin. In parallel, sections of tissue collected after 4 hours of EVLP were stained for immunofluorescence imaging using primary antibodies for syndecan-1 (DL-101) (#sc-12765, Santa Cruz) and caveolin-1 (#3238, Cell Signaling Technology, Danvers, MA) and with Hoechst 33342 dye (Thermo Scientific). Donkey Cy3-conjugated anti-mouse IgG (#AP192C, MilliporeSigma, Burlington, MA) and Cy5-conjugated goat anti-rabbit IgG (#A10523, Thermo Scientific) secondary antibodies were used to detect primary antibodies. Stained slides were scanned with a whole-slide image scanner (Axio Scan.Z1; Carl Zeiss AB, Oberkochen, Germany) and analyzed with digital image processing software (ZEN lite blue edition; Carl Zeiss).

[2] = system: HPSE1, MMP2, IL-6, IL-1β, TNF-α mRNA; IκB-α; assay: Real-time RT-PCR and western blotting in rat lung tissue after 4 hours of EVLP
Experimental: as §1
Western blotting: Total isolated proteins were extracted/resolved by 10% SDS-PAGE followed by transfer to 0.2 μm nitrocellulose membranes (Bio-Rad Laboratories, Hercules, CA, USA). Membranes were blocked with 5% non-fat milk at room temperature for 2 hours and then incubated overnight at 4° C. with the following primary antibodies: inhibitor of KB-α (IκB-α; #9242, Cell Signaling Technology, Inc., Danvers, MA) and β-actin (#A1978, Millipore-Sigma). Membranes were then incubated with either goat anti-mouse IgG (H+L) (#31430, Thermo Fisher Scientific Inc.; 1:5000) or goat anti-rabbit IgG (H+L) (#31460, Thermo Fisher Scientific Inc.; 1:3000) horseradish peroxidase-conjugated polyclonal secondary antibodies at room temperature for 2 hours. Proteins were visualized using an enhanced chemiluminescence kit (Abcam), and protein bands were imaged and analyzed using Image Lab software (Version 6.0; Bio-Rad Laboratories, Inc., Hercules, CA). The intensities of protein bands were quantitated by Image J software (National Institutes of Health, Bethesda, MD).

rat lungs = assay: Rat EVLP for 4 hours with HPSE inhibitors in the perfusate: physiology, endothelial barrier, edema; settings: heparin 1000-U/hour or SF4 1 μM in perfusate
Experimental: In the heparin group, 1000-U of heparin were initially added to the EVLP perfusate, then 1000-U of heparin were administered every hour during EVLP. […] Two control conditions were included in the experimental protocol: 1) sham controls (Sham) were lungs not placed on EVLP and 2) untreated controls (Control) were lungs placed on EVLP without HPSE inhibitor treatment. EVLP physiology, endothelial integrity, inflammation and glycocalyx preservation for EVLP lungs and post-transplant lung grafts were investigated across all treatment regimens.
Ex vivo lung perfusion in rats: EVLP was performed using a commercially-available rodent EVLP system (IL-2 Isolated Perfused Rat or Guinea Pig Lung System; Harvard apparatus, Holliston, MA). Acellular Steen solution was used for EVLP perfusate and medicated with methylprednisolone (Solu-Medrol®; Pfizer, Inc., New York, NY) and cephalosporin (Cefazolin; WG critical care LLC, Paramus, NJ) equally in all experimental groups. […] Pulmonary artery pressure, peak airway pressure, and airway flow were monitored continuously, and dynamic lung compliance (Cdyn) and pulmonary vascular resistance (PVR) were analyzed.
Evaluation of endothellal barrier Integrity After 4 hours of EVLP, 60 mg of Evans blue dye (EBD, Millipore-Sigma, Burlington, MA) was administered into the perfusate to assess vascular endothelial permeability. After 30 minutes of perfusion, the lung vascular bed was rinsed with 20 ml of phosphate-buffered saline (PBS), and slices of lungs were incubated in formamide (Millipore Sigma) overnight at 60° C. Absorbance of the extractant was measured at 620 nm, and EBD was normalized to dry-tissue weight.
Wet-to-Dry (W/D) weight ratio: Lung tissues collected 2 hours after transplant were immediately weighed then placed in a 60° C. oven to dry for 72 hours. Tissues were weighed again after drying to determine the wet-to-dry lung weight ratio.

[3] = system: glycosaminoglycans (GAGs), syndecan-1; assay: Glycocalyx shedding in rat lungs during EVLP (GAGs, syndecan-1 ELISA, immunofluorescence)
Experimental: Syndecan-1 ELISA: Syndecan-1 concentrations in EVLP perfusate were quantitated using ELISA (Immunotag™ Rat Syndecan-1 ELISA, G-Biosciences, Geno Technology, Inc., St. Louis, MO). ELISA was performed according to the manufacturer's instructions using perfusate samples acquired after 4 hours of EVLP.
Determination of glycosaminoglycans (GAGS): The concentration of GAGs in rat EVLP perfusate at 4 hours was quantitated using 1,9-dimethylmethylene blue (DMMB, Millipore Sigma). The DMMB solution (pH˜3.0) was prepared by dissolving 16 mg/I DMMB in distilled H2O containing 3.04 g/I glycine, 1.6 g/l NaCl and 95 ml 0.1 M acetic acid. Briefly, 1 ml DMMB solution was mixed with 100 μl EVLP perfusate then incubated for 18 h at room temperature. The tubes were then centrifuged at 14,000 rpm for 20 min at 4° C. Supernatants were carefully decanted, 100 μl dissolvent buffer (4 M guanidine hydrochloride, 50 mM sodium acetate, 10% propan-1-ol, pH 6.8) was added to each pellet, and the tubes were incubated at 40° C. and vortexed until GAG-DMMB pellets were completely dissolved. GAG content in each sample was measured spectrophotometrically at 656 nm.
as §2

[4] = 100 nM SF4, 250 mM amodiaquine, 250 mM triazolothiadiazoles
[5] = 2 hours after transplant, vs untreated control and heparin-pretreated lungs

Row | Structure (SMILES) | β-D-glucuronidase activity, dose response (heparanase (HPSE)) | Relative mRNA expression (compared to control) Bax ([1]; 100 nM SF4) | Relative mRNA expression (compared to control) Bcl-xl [1, 4] | Relative mRNA expression (compared to control) HO-1 [1, 4] | Relative mRNA expression (compared to control) IL6 [1, 4] | Relative mRNA expression (compared to control) MCP1 [1, 4] | H&E histology of grafts (rat lung grafts; 2 hours after transplant following 4 hours of EVLP) | IL-1β mRNA expression (rat lung grafts; [5]) | IL-6 mRNA expression (rat lung grafts; [5]) | TNF-α mRNA expression (rat lung grafts; [5]) | IL-1β mRNA expression ([2]; lung tissue after 4-hours EVLP) | IL-6 mRNA expression ([2]; lung tissue after 4-hours EVLP) | TNF-α mRNA expression ([2]; lung tissue after 4-hours EVLP) | IκB-α expression (western blot) ([2]; lung tissue after 4-hours EVLP, vs control and heparin groups) | HPSE1 mRNA expression ([2]; lung tissue after 4 hours of EVLP, vs sham) | dynamic lung compliance (Cdyn) during EVLP (rat lungs; 4-hour EVLP, vs control) | Evans blue dye (EBD) accumulation in lung tissue (rat lungs; after 4-hours EVLP) | syndecan-1 immunofluorescent staining of lung endothelial lumen ([3]; after 4-hours EVLP, vs controls and heparin-treated) | syndecan-1 concentration in EVLP perfusate ([3]; after 4 hours EVLP, SF4 vs heparin-treated, heparin vs controls) | GAGs content in EVLP perfusate ([3]; at 4-hours EVLP, vs controls)
1 | CCN(CC)Cc1cc(Nc2ccnc3cc(Cl)ccc23)ccc1O [Amodiaquine, amodiaquine] | dose-dependent | 0.71 | 1.30 | 2.94 | 13.55 | 3.45 | – | – | – | – | – | – | – | – | – | – | – | – | – | –
2 | O=C(O)Cc1ccc2oc(-c3ccc(NC(=O)/C=C/c4ccc(Br)cc4)c(F)c3)nc2c1 [OGT-2113] | dose-dependent | – | – | – | – | – | – | – | – | – | – | – | – | – | – | – | – | – | – | –
3 | Cl.O=C(O)[C@H]1CN[C@H](NC(=O)C(F)(F)F)[C@@H](O)[C@H]1O [SF4, (3S,4S,5R,6R)-4,5-dihydroxy-6-[(2,2,2-trifluoroacetyl)amino]piperidine-3-carboxylic acid] | – | – | – | – | – | – | reduced swollen alveolar walls, congestion in the blood vessels, and fluid leaks | significantly lower | significantly lower | significantly lower | significantly downregulated | significantly downregulated | significantly downregulated | significantly stabilized | not altered | neither heparin nor SF4 altered Cdyn | markedly decreased | significantly increased staining | significantly lower | significantly reduced
